Measurements published in ChEMBL document CHEMBL1134996, “Non-peptide alpha(v)beta(3) antagonists. Part 5: identification of potent RGD mimetics incorporating 2-aryl beta-amino acids as aspartic acid replacements” (Bioorg Med Chem Lett, 2002).

Tests used:
[1] = biological target: Integrin alpha-V/beta-3 (Homo sapiens, UniProt P05106+P06756); assay: Inhibition of binding to human integrin receptor alpha V beta3; type: protein-complex assay
[2] = Bioavailability in dog; type: ADME, organism-based, Canis lupus familiaris; conditions: in vivo
[3] = Clearance after oral and iv dosing in dogs; type: ADME, organism-based, Canis lupus familiaris; conditions: dog, in vivo, read-out: CI

Chain of Integrin alpha-V/beta-3 (P05106 27-788 limits assumed): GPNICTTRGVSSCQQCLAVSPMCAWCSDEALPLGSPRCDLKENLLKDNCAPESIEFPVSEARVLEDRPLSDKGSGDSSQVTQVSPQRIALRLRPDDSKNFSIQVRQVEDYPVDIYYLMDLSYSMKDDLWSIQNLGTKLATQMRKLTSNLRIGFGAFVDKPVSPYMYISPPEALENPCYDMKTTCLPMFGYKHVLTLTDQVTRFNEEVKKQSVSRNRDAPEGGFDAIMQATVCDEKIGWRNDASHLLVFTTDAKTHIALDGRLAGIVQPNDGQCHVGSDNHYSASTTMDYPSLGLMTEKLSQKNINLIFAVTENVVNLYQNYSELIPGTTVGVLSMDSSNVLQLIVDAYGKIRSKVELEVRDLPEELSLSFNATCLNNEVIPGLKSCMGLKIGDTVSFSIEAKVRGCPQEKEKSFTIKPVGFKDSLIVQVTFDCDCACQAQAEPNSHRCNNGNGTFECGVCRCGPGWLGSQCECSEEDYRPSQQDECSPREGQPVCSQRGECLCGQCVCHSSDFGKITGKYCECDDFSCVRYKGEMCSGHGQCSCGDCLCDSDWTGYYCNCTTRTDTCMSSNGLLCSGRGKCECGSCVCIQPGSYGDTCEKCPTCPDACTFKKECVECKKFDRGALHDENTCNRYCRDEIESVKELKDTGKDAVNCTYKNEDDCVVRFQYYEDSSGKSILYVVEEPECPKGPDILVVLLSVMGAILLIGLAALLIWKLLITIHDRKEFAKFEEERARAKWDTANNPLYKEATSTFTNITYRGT
Chain of Integrin alpha-V/beta-3 (P06756 31-889 limits assumed): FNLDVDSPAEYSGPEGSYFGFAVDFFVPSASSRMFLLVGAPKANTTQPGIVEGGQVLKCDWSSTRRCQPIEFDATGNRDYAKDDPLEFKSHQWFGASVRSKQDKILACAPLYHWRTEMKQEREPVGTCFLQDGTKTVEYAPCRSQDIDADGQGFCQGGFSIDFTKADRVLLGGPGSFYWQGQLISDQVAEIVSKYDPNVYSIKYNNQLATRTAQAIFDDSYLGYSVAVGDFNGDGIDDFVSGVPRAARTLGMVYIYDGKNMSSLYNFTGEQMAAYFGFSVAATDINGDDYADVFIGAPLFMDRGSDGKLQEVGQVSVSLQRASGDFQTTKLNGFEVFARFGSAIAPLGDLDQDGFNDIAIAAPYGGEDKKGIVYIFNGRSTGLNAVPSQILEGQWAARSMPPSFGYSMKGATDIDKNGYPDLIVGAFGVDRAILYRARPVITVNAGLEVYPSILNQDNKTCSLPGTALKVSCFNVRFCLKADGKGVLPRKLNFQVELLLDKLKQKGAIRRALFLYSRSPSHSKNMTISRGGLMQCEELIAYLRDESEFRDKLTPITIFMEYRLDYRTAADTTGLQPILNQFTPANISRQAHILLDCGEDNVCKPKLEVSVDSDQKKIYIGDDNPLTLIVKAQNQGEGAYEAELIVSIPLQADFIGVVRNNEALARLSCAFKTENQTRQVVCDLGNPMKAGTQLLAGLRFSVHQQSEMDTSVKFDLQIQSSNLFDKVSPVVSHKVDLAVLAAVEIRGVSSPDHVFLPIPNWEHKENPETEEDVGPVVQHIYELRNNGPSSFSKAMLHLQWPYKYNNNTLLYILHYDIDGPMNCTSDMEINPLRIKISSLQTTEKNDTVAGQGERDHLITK
Chain of Integrin alpha-V/beta-3 (P06756 891-1048 limits assumed): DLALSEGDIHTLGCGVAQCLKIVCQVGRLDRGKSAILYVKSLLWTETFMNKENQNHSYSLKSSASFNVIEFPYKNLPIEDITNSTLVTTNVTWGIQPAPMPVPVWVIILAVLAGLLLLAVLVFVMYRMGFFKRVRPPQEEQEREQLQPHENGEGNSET

Row | Compound | IC50 [1] [nM] | bioavailability [2] [%] | clearance [3] [mL/min/kg]
1 | O=C(CCC1CCc2cc3c(nc2C1)NCCC3)NCC(C(=O)O)c1ccc2c(c1)OCC2 (stereo not given) | 0.72 | 1.1 | 18.9
2 | O=C(CCCCc1ccc2c(n1)NCCC2)NCC(C(=O)O)c1cnc2ccccc2c1 (stereo not given) | 0.82 |  | 
3 | CN(CC(C(=O)O)c1ccc2c(c1)OCC2)C(=O)CCC1CCc2cc3c(nc2C1)NCCC3 (stereo not given) | 0.35 | 18 | 10.3
4 | O=C(O)C[C@H](NC(=O)CCCCc1ccc2c(n1)NCCC2)c1ccccc1 | 84 |  | 
5 | CN(CC(C(=O)O)c1ccc2c(c1)OCC2)C(=O)CCCCc1nc2c(cc1C1CC1)CCCN2 (stereo not given) | 0.49 |  | 
6 | O=C(O)C[C@H](NC(=O)CCCCc1ccc2c(n1)NCCC2)c1cnc2ccccc2c1 | 1.07 |  | 

Continued, values first:

Row | IC50 [1] [nM] | bioavailability [2] [%] | clearance [3] [mL/min/kg] | Compound
7 | 10.9 |  |  | O=C(CCCCc1ccc2c(n1)NCCC2)NCC(C(=O)O)c1cccc(F)c1 (stereo not given)
8 | 0.74 |  |  | CN(CC(C(=O)O)c1ccc2c(c1)OCC2)C(=O)CCCCc1ccc2c(n1)NCCC2 (stereo not given)
9 | 0.29 | 40 | 13.7 | O=C(CCCCc1nc2c(cc1C1CC1)CCCN2)NCC(C(=O)O)c1ccc2c(c1)OCC2 (stereo not given)
10 | 1.01 | 47 | 6.6 | O=C(CCCCc1ccc2c(n1)NCCC2)NCC(C(=O)O)c1ccc2c(c1)OCC2 (stereo not given)
11 | 57.4 |  |  | O=C(CCCCc1ccc2c(n1)NCCC2)NCC(C(=O)O)c1ccccc1 (stereo not given)
12 |  |  | 2 | O=C(O)C[C@H](NC(=O)CCCCc1ccc2c(n1)NCCC2)c1ccc2c(c1)OCC2
